Measured values as given in patent publication US6465457B1 (priority 1991, dated 2002).
Where two headings read alike, the source gives them in different places.

Key:
Format in all cases: in vivo
[1] = test system: Thanatephorus cucumeries (Rice); experiment: Foliar fungal disease test on plants: Thanatephorus cucumeries (Rice); conditions: one or two days before inoculation
[2] = test system: Venturia inaequalis (Apples); experiment: Foliar fungal disease test on plants: Venturia inaequalis (Apples); conditions: one or two days before inoculation
[3] = test system: Pyricularia oryzae (Rice); conditions: one or two days before inoculation
[4] = test system: Phytophthora infestans (Tomatoes); conditions: one or two days before inoculation
[5] = test system: Septoria nodorum (Wheat); experiment: Foliar fungal disease test on plants: Septoria nodorum (Wheat); conditions: one or two days before inoculation
[6] = test system: Plasmopara viticola (Vines); experiment: Foliar fungal disease test on plants: Plasmopara viticola (Vines); conditions: one or two days before inoculation
[7] = test system: Erysiphe graminis tritici (Wheat); experiment: Foliar fungal disease test on plants: Erysiphe graminis tritici (Wheat); conditions: plants inoculated 24 hours before treatment
[8] = test system: Puccinia recondita (Wheat); experiment: Foliar fungal disease test on plants: Puccinia recondita (Wheat); conditions: plants inoculated with Puccinia recondita 48 hours before treatment
[9] = 100 ppm a.i. foliar spray or root drench (approx. 40 ppm in dry soil)
[10] = 100 ppm a.i. foliar spray or root drench

Structure (SMILES)	POCO (Percentage of Control) disease level, Thanatephorus cucumeries (Rice) [1, 9]	POCO (Percentage of Control) disease level, Venturia inaequalis (Apples) [2, 9]	POCO (Percentage of Control) disease level, Pyricularia oryzae (Rice) [3, 9]	POCO (Percentage of Control) disease level, Phytophthora infestans (Tomatoes) [4, 9]	POCO (Percentage of Control) disease level, Septoria nodorum (Wheat) [5, 9]	POCO (Percentage of Control) disease level, Plasmopara viticola (Vines) [6, 9]	POCO (Percentage of Control) disease level, Erysiphe graminis tritici (Wheat) [7, 9]	POCO (Percentage of Control) disease level, Puccinia recondita (Wheat) [8, 10]	POCO (Percentage of Control) disease level, Thanatephorus cucumeries (Rice) ([1]; 10 ppm foliar spray only)	POCO (Percentage of Control) disease level, Venturia inaequalis (Apples) ([2]; 10 ppm foliar spray only)	POCO (Percentage of Control) disease level, Pyricularia oryzae (Rice) ([3]; 10 ppm foliar spray only)	POCO (Percentage of Control) disease level, Phytophthora infestans (Tomatoes) ([4]; 10 ppm foliar spray only)	POCO (Percentage of Control) disease level, Septoria nodorum (Wheat) ([5]; 10 ppm foliar spray only)	POCO (Percentage of Control) disease level, Plasmopara viticola (Vines) ([6]; 10 ppm foliar spray only)	POCO (Percentage of Control) disease level, Erysiphe graminis tritici (Wheat) ([7]; 10 ppm foliar spray only)	POCO (Percentage of Control) disease level, Puccinia recondita (Wheat) ([8]; 10 ppm foliar spray only)
COC=C(C(=O)OC)c1ccccc1COC(=O)N(C)c1ccccc1OC [16 (2)]	5 (5 = 3.1-5% disease present)	1 (1 = 0.1-1% disease present)	0 (0 = 0% disease present)	20 (20 and 24 = 10.1-20% disease present)	5 (5 = 3.1-5% disease present)	0 (0 = 0% disease present)	0 (0 = 0% disease present)	10+ (10 = 5.1-10% disease present)	–	–	–	–	–	–	–	–
C#CCN(C(=O)OCc1ccccc1C(=COC)C(=O)OC)c1ccccc1OC [16 (15)]	0 (0 = 0% disease present)	1 (1 = 0.1-1% disease present)	0 (0 = 0% disease present)	5 (5 = 3.1-5% disease present)	10 (10 = 5.1-10% disease present)	0 (0 = 0% disease present)	0 (0 = 0% disease present)	60+ (60 = 30.1-60% disease present)	–	–	–	–	–	–	–	–
COC=C(C(=O)OC)c1ccccc1COC(=O)Nc1ccccc1C(F)(F)F [18 (1)]	90 (90 and 94 = 60.1-100% disease present)	3 (3 = 1.1-3% disease present)	60 (60 = 30.1-60% disease present)	90 (90 and 94 = 60.1-100% disease present)	90 (90 and 94 = 60.1-100% disease present)	0 (0 = 0% disease present)	90 (90 and 94 = 60.1-100% disease present)	90+ (90 and 94 = 60.1-100% disease present)	–	–	–	–	–	–	–	–
COC=C(C(=O)OC)c1ccccc1COC(=O)N(C)c1ccccc1C(F)(F)F [18 (2)]	60 (60 = 30.1-60% disease present)	3 (3 = 1.1-3% disease present)	60 (60 = 30.1-60% disease present)	90 (90 and 94 = 60.1-100% disease present)	90 (90 and 94 = 60.1-100% disease present)	3 (3 = 1.1-3% disease present)	60 (60 = 30.1-60% disease present)	90+ (90 and 94 = 60.1-100% disease present)	–	–	–	–	–	–	–	–
C=CCNC(=O)OCc1ccccc1C(=COC)C(=O)OC [20 (1)]	90 (90 and 94 = 60.1-100% disease present)	5 (5 = 3.1-5% disease present)	20 (20 and 24 = 10.1-20% disease present)	60 (60 = 30.1-60% disease present)	90 (90 and 94 = 60.1-100% disease present)	90 (90 and 94 = 60.1-100% disease present)	20 (20 and 24 = 10.1-20% disease present)	3+ (3 = 1.1-3% disease present)	–	–	–	–	–	–	–	–
COC=C(C(=O)OC)c1ccccc1COC(=O)N(C)c1ccccc1SC [21 (2)]	–	–	–	–	–	–	–	–	90 (90 and 94 = 60.1-100% disease present)	60 (60 = 30.1-60% disease present)	30 (30 = 20.1-30% disease present)	90 (90 and 94 = 60.1-100% disease present)	60 (60 = 30.1-60% disease present)	0 (0 = 0% disease present)	90 (90 and 94 = 60.1-100% disease present)	90+ (90 and 94 = 60.1-100% disease present)
COC=C(C(=O)OC)c1ccccc1COC(=O)Nc1c(F)cccc1F [23 (1)]	0 (0 = 0% disease present)	0 (0 = 0% disease present)	30 (30 = 20.1-30% disease present)	90 (90 and 94 = 60.1-100% disease present)	30 (30 = 20.1-30% disease present)	0 (0 = 0% disease present)	0 (0 = 0% disease present)	30+ (30 = 20.1-30% disease present)	–	–	–	–	–	–	–	–
COC=C(C(=O)OC)c1ccccc1COC(=O)N(C)c1c(F)cccc1F [23 (2)]	0 (0 = 0% disease present)	0 (0 = 0% disease present)	0 (0 = 0% disease present)	0 (0 = 0% disease present)	0 (0 = 0% disease present)	0 (0 = 0% disease present)	0 (0 = 0% disease present)	0+ (0 = 0% disease present)	–	–	–	–	–	–	–	–
CCN(C(=O)OCc1ccccc1C(=COC)C(=O)OC)c1c(F)cccc1F [23 (3)]	0 (0 = 0% disease present)	0 (0 = 0% disease present)	1 (1 = 0.1-1% disease present)	5 (5 = 3.1-5% disease present)	5 (5 = 3.1-5% disease present)	0 (0 = 0% disease present)	0 (0 = 0% disease present)	0+ (0 = 0% disease present)	–	–	–	–	–	–	–	–
C=CCN(C(=O)OCc1ccccc1C(=COC)C(=O)OC)c1c(F)cccc1F [23 (101)]	0 (0 = 0% disease present)	0 (0 = 0% disease present)	0 (0 = 0% disease present)	90 (90 and 94 = 60.1-100% disease present)	10 (10 = 5.1-10% disease present)	0 (0 = 0% disease present)	0 (0 = 0% disease present)	0+ (0 = 0% disease present)	–	–	–	–	–	–	–	–
CCN(C(=O)OCc1ccccc1C(=COC)C(=O)OC)c1ccc(F)cc1F [24 (3)]	0 (0 = 0% disease present)	0 (0 = 0% disease present)	10 (10 = 5.1-10% disease present)	60 (60 = 30.1-60% disease present)	0 (0 = 0% disease present)	0 (0 = 0% disease present)	0 (0 = 0% disease present)	0+ (0 = 0% disease present)	–	–	–	–	–	–	–	–
COC=C(C(=O)OC)c1ccccc1OC(=O)Nc1ccc(F)cc1F [24 (17)]	60 (60 = 30.1-60% disease present)	0 (0 = 0% disease present)	0 (0 = 0% disease present)	0 (0 = 0% disease present)	0 (0 = 0% disease present)	0 (0 = 0% disease present)	0 (0 = 0% disease present)	0+ (0 = 0% disease present)	–	–	–	–	–	–	–	–
COC=C(C(=O)OC)c1ccccc1OC(=O)N(C)c1ccc(F)cc1F [24 (18)]	–	–	–	–	–	–	–	–	90 (90 and 94 = 60.1-100% disease present)	90 (90 and 94 = 60.1-100% disease present)	90 (90 and 94 = 60.1-100% disease present)	90 (90 and 94 = 60.1-100% disease present)	90 (90 and 94 = 60.1-100% disease present)	90 (90 and 94 = 60.1-100% disease present)	60 (60 = 30.1-60% disease present)	90+ (90 and 94 = 60.1-100% disease present)
